In ChEMBL document CHEMBL1201862, “PubChem BioAssay data set” (2004):
Calls of active or inactive are those of the source.

Assays:
CHO-K1 = experiment: (§1) Counterscreen for antagonists of the orexin 1 receptor (OX1R; HCRTR1): Homogeneous time resolved fluorescence (HTRF)-based cell-based dose response assay to identify antagonists of the parental CHO-K1 cell line. [Related pubchem assays (depositor defined):AID434989, AID435008, AID463079, AID485270, AID492963, AID492964, AID492965, AID493232, AID504699, AID504701]; assay type: functional; details: Cricetulus griseus
[1] = as §1, with “Fluorescence-based” for “Homogeneous time resolved fluorescence (HTRF)-based”, “cell-based high throughput” for “cell-based”, “CHO” for “CHO-K1”; assay type: functional
[2] = biological target: T1, Orexin/Hypocretin receptor type 1 (Homo sapiens, UniProt O43613); experiment: Homogeneous Time Resolved Fluorescence (HTRF)-based cell-based high throughput dose response assay for antagonists of the orexin 1 receptor (OX1R; HCRTR1). [Related pubchem assays (depositor defined):AID434989, AID435008, AID463079, AID485270, AID492963, AID492964, AID492965, AID493232, AID504717, AID504718]; assay type: functional
T1 sequence (O43613 whole entry): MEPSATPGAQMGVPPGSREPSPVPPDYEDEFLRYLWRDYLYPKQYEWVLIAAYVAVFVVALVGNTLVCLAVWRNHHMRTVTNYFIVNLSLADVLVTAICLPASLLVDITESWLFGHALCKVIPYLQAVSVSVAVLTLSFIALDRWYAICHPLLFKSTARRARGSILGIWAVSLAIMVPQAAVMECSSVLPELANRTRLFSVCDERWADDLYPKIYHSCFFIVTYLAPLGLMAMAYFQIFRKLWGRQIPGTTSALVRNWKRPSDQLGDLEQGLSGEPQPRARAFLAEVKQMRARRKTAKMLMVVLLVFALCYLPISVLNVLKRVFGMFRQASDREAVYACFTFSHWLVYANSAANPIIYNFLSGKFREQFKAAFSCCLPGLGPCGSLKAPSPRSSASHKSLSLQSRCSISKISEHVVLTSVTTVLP

[3] = biological target: T1, Orexin/Hypocretin receptor type 1; experiment: Fluorescence-based cell-based high throughput dose response assay for antagonists of the orexin 1 receptor (OX1R; HCRTR1). [Related pubchem assays (depositor defined):AID434989, AID435008, AID463079, AID485270, AID492963, AID492964, AID492965, AID493232, AID504717, AID504718]; assay type: functional
Orexin receptor type 2 [4] = biological target: T2, Orexin receptor type 2 (Homo sapiens, UniProt O43614); experiment: Counterscreen assay for antagonists of the orexin 1 receptor (OX1R; HCRTR1): Fluorescence-based cell-based dose response assay for antagonists of the orexin 2 receptor (OX2R; HCRTR2), run by assay provider.; assay type: functional
T2 sequence (O43614 whole entry): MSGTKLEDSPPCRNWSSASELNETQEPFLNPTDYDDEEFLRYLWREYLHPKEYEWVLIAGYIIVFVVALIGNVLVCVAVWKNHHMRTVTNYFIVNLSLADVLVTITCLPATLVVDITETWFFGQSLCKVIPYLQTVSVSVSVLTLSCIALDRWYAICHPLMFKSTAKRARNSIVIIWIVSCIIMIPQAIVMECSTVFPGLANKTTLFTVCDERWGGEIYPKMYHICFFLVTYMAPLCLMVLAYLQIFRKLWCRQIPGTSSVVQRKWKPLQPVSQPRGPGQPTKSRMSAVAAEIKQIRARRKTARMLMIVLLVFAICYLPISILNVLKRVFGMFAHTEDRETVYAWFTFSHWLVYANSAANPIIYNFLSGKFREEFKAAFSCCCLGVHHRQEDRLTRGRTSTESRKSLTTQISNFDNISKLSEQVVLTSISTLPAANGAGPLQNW

Orexin receptor type 2 [5] = biological target: T2, Orexin receptor type 2; experiment: Counterscreen assay for antagonists of the orexin 1 receptor (OX1R; HCRTR1): Homogeneous Time Resolved Fluorescence (HTRF)-based cell-based dose response assay for antagonists of the orexin 2 receptor (OX2R; HCRTR2), run by assay provider.; assay type: functional
[6] = biological target: T3, High affinity choline transporter 1 (Homo sapiens, UniProt Q9GZV3); experiment: human choline transporter blockers, potency – cell-based, 5-point CRC, membrane potential dye, dose response (AID 504840); assay type: functional
T3 sequence (Q9GZV3 whole entry): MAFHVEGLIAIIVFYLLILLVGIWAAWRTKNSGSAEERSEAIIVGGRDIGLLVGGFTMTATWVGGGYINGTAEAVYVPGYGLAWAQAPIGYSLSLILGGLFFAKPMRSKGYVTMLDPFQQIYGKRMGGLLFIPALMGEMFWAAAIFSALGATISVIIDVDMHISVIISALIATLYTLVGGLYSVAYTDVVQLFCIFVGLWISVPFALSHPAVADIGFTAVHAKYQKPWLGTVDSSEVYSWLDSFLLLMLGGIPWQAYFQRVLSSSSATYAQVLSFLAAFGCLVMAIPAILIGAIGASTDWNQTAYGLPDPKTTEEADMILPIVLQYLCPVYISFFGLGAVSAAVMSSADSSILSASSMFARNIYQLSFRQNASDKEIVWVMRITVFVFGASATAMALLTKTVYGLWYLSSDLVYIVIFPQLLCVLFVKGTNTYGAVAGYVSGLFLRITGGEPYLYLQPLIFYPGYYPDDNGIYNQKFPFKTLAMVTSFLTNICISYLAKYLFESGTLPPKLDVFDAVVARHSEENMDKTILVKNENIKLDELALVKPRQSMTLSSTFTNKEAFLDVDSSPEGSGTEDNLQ

[7] = biological target: T3, High affinity choline transporter 1; experiment: human choline transporter blockers, potency – cell-based, 10-point CRC, membrane potential dye, dose response (AID 588401); assay type: functional;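 note: membrane potential dye fluorescence of choline-evoked depolarization via CHT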
[8] = biological target: Serine/threonine-protein kinase pim-1 (Homo sapiens, UniProt P11309); assay type: functional
Serine/threonine-protein kinase pim-1, sequence (P11309 whole entry): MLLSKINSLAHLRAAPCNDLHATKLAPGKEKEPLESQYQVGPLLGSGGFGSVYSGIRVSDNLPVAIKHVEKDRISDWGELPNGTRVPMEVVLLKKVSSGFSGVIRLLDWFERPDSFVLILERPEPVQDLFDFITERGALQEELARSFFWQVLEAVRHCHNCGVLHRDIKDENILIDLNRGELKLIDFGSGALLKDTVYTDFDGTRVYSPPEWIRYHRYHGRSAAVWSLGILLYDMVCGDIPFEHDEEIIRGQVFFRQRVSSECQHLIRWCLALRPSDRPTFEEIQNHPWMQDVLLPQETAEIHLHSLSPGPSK

[9] = biological target: Cell division cycle 7-related protein kinase (Homo sapiens, UniProt O00311); assay type: functional;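 note: value obtained from a kinome-wide kinase panel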
Cell division cycle 7-related protein kinase, sequence (O00311 whole entry): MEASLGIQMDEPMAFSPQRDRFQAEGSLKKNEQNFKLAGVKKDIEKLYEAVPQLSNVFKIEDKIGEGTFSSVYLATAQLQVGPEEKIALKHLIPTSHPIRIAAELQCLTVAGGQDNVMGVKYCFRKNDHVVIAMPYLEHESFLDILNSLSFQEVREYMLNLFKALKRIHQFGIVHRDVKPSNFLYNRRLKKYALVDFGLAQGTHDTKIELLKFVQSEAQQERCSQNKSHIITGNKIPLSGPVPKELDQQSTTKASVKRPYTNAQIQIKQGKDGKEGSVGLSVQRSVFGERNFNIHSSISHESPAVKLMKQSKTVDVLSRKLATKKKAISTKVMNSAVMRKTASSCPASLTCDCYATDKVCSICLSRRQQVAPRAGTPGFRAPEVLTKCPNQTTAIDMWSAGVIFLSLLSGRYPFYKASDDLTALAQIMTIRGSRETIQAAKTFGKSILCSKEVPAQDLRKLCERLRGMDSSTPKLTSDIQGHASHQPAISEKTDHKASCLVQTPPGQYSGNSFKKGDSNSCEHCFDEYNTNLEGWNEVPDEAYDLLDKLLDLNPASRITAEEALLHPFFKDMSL

[10] = biological target: Homeodomain-interacting protein kinase 2 (Homo sapiens, UniProt Q9H2X6); assay type: functional;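 note: measured within a kinome-wide kinase profiling panel, HIPK2 being one panel member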
Homeodomain-interacting protein kinase 2, sequence (Q9H2X6 whole entry): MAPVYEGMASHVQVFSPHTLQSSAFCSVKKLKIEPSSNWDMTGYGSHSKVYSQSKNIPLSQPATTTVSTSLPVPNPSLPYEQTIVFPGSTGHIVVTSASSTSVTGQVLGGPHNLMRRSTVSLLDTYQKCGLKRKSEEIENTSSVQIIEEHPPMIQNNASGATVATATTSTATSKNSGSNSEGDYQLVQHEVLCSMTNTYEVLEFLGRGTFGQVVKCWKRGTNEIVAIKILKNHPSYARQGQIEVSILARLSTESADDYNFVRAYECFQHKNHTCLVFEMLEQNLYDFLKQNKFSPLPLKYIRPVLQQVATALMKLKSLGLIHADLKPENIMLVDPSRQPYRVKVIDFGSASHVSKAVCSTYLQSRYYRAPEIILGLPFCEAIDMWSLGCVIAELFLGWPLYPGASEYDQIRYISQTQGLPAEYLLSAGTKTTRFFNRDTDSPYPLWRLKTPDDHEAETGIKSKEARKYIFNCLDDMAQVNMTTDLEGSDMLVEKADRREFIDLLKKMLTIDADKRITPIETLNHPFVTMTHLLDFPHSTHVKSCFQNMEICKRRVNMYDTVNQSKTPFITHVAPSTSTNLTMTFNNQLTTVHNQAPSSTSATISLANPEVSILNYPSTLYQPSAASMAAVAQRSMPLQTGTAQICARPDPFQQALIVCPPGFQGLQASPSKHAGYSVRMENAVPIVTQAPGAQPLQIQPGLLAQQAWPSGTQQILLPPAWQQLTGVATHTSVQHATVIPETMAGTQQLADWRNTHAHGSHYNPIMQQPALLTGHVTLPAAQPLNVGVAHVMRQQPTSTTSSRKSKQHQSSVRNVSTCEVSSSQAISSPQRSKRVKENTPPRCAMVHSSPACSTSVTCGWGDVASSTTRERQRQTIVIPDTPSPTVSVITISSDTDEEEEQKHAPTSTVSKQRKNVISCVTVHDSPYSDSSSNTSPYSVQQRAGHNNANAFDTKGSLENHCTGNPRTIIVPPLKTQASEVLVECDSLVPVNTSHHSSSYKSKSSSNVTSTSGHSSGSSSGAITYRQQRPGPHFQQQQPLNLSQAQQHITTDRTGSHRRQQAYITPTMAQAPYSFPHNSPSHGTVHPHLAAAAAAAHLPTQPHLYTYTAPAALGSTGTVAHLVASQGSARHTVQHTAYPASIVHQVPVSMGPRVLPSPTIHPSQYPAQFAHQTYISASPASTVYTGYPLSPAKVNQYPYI

[11] = biological target: Interleukin-1 receptor-associated kinase 4 (Homo sapiens, UniProt Q9NWZ3); assay type: functional
Interleukin-1 receptor-associated kinase 4, sequence (Q9NWZ3 whole entry): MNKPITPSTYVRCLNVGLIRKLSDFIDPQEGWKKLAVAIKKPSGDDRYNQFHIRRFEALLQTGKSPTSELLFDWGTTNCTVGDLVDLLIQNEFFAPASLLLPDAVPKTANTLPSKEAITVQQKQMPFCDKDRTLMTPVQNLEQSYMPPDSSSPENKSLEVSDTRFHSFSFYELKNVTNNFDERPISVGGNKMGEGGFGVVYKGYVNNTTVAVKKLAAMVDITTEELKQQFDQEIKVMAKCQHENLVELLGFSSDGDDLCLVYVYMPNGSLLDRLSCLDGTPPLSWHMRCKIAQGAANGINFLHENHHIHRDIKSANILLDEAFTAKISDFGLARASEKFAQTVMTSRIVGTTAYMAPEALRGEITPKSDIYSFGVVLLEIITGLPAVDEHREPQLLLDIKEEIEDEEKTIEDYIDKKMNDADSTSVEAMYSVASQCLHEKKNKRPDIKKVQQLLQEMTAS

[12] = biological target: Glycogen synthase kinase-3 beta (Homo sapiens, UniProt P49841); assay type: functional;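 note: value comes from a broad kinome profiling panel, with GSK3B as the panel member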
Glycogen synthase kinase-3 beta, sequence (P49841 whole entry): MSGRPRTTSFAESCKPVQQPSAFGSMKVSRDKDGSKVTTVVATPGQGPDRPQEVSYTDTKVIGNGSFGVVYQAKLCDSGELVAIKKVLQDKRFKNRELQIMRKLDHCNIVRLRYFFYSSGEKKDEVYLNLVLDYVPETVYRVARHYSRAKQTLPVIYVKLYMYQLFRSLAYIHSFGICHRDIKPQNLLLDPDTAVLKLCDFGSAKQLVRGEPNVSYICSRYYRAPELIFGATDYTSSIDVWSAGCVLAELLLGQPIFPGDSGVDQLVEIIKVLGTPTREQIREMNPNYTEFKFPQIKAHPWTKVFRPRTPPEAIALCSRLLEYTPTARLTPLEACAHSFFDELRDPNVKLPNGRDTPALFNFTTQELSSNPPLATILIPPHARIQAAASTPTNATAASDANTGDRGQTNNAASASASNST

[13] = biological target: cAMP-dependent protein kinase catalytic subunit alpha (Homo sapiens, UniProt P17612); assay type: functional
[14] = biological target: Dual specificity protein kinase CLK4 (Homo sapiens, UniProt Q9HAZ1); assay type: functional
Dual specificity protein kinase CLK4, sequence (Q9HAZ1 whole entry): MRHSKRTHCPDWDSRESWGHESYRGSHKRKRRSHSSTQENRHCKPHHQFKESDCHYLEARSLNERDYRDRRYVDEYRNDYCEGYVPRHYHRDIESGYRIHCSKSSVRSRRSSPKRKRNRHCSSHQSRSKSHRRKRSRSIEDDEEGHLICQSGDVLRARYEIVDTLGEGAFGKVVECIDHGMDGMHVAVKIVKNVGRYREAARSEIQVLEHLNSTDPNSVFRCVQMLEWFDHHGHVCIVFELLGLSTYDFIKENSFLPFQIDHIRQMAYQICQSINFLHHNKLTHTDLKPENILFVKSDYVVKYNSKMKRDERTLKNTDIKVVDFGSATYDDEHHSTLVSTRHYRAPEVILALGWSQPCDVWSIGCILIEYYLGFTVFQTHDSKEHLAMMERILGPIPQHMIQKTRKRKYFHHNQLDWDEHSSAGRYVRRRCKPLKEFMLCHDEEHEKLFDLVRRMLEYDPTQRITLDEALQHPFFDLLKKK

[15] = NIH-3T3 fibroblast cytotoxicity, dose response, cytotoxicity control, cell-based, fluorescence, Alamar Blue, secondary assay (AID 2327); assay type: functional;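 note: NIH-3T3 mouse fibroblasts cultured with fluconazole at 8 µg/mL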
[16] = fluconazole-exposed Candida albicans growth modulators – fluorescence, retest, confirmation (AID 2467); assay type: functional, cell-based
[17] = microbe, parasite or virus in culture; assay type: functional; details: Mycobacterium tuberculosis
[18] = biological target: T4, Probable nicotinate-nucleotide adenylyltransferase (Staphylococcus aureus (strain N315), UniProt P65502); assay type: functional, Staphylococcus aureus subsp. aureus N315;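 for IC50 Mean: confirmatory dose-response retesting of NadD inhibitor hits first found in an ultra-high-throughput screen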
T4 sequence (P65502 whole entry): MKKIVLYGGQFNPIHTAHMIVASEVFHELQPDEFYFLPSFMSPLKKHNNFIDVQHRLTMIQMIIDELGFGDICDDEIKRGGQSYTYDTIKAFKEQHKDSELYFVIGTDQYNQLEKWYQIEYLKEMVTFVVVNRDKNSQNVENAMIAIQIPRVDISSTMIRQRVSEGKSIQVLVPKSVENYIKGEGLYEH

[19] = biological target: T4, Probable nicotinate-nucleotide adenylyltransferase; assay type: functional, Staphylococcus aureus subsp. aureus N315; details: read-out: IC50_Mean
Large T antigen = Large T antigen (Simian virus 40, UniProt P03070); assay type: functional, Betapolyomavirus macacae;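 note: Confirmatory-stage PubChem screen for compounds that inhibit SV40 T antigen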
[20] = Trypanosoma cruzi growth suppression in host cells – NIH3T3 host cells, beta-gal luminescence, confirmation (AID 2044); assay type: functional, cell-based;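 note: intracellular parasites grown in NIH/3T3 mouse fibroblasts as host cells; luminescent beta-galactosidase reporter signal from transgenic T. cruzi replicating inside host cells; inhibitors lower the luminescence signal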
[21] = NIH3T3 cell viability loss – ATP luminescence, mouse fibroblasts, counter-screen, dose response (AID 2010); assay type: functional, cell-based;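 note: cells exposed to compound for about 90 hours before reading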
[22] = biological target: T5, Short transient receptor potential channel 4 (Mus musculus, UniProt Q9QUQ5); experiment: block of DAMGO-driven TRPC4 calcium entry – cell-based, HEK293 TRPC4/mu-opioid, Fluo-4 calcium, dose response (AID 434942); assay type: functional;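 note: potency of inhibitors blocking the TRPC4 calcium response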
T5 sequence (Q9QUQ5 whole entry): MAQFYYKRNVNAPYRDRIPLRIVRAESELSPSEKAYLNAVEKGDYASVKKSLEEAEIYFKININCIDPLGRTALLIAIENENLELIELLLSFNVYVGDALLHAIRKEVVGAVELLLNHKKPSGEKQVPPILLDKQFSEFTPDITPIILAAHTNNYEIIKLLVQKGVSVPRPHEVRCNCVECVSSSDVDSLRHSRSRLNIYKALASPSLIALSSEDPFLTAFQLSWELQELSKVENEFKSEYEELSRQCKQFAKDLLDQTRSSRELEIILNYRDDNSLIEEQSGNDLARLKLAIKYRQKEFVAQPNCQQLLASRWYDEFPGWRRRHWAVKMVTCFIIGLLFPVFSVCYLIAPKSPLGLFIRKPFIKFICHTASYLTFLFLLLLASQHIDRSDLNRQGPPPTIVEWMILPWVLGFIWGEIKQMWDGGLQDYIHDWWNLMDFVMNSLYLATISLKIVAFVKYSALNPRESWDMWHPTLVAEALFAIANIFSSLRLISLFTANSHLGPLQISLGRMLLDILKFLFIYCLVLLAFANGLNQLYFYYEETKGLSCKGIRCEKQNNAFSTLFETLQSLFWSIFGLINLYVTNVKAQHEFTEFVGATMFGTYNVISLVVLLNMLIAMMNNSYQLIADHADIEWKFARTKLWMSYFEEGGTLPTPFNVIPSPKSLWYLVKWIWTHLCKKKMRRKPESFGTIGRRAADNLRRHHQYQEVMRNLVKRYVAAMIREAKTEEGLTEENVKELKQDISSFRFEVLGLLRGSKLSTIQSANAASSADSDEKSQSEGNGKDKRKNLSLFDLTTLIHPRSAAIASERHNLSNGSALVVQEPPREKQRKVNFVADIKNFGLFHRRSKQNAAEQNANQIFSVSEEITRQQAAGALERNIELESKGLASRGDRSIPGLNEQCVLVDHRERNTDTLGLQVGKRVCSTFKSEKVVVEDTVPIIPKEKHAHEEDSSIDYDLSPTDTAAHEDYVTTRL

Vero = experiment: viability of Vero cells under compound – cytotoxicity control for flavivirus capping enzyme inhibitors (AID 588742); assay type: functional; details: Chlorocebus sabaeus
INS1 = experiment: INS-1E survival protection against cytokine death – cell-based, luminescence, retest, dose response (AID 449756); assay type: functional; details: Rattus norvegicus;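 note: cell death triggered by IL-1 beta plus TNF-alpha plus IFN-gamma mixture; protective hits raise ATP signal compared with cytokine alone wells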
Genome polyprotein = Genome polyprotein (dengue virus type 2, UniProt P29990); experiment: flavivirus cap methylation enzyme inhibition – biochemical, confirmation dose response, primary screen (AID 588689); assay type: functional
Genome polyprotein, sequence (P29990 2492-3391 limits assumed): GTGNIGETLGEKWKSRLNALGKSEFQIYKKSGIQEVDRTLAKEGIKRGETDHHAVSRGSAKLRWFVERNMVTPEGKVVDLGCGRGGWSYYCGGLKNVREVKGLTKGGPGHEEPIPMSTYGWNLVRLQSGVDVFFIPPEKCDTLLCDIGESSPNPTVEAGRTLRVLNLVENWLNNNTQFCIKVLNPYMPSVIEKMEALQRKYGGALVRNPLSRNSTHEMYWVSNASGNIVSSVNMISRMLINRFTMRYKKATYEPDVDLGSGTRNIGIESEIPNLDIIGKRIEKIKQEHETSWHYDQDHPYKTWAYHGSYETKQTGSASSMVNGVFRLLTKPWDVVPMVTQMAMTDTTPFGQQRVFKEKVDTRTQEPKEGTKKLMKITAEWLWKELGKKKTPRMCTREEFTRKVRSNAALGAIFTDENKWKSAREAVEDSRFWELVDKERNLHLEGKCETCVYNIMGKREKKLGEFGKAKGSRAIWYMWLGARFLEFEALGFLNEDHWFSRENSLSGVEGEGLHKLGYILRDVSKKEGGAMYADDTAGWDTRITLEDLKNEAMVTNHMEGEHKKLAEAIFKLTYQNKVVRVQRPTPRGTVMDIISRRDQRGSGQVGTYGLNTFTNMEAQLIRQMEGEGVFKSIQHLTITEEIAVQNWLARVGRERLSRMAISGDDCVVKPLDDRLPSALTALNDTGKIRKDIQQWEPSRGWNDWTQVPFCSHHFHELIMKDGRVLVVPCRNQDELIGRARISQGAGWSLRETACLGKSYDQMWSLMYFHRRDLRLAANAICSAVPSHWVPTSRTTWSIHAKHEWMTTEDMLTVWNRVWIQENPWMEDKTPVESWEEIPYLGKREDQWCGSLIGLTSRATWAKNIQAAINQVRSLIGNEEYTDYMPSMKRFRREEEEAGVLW

[23] = biological target: T6, Hepatocyte nuclear factor 4-alpha (Homo sapiens, UniProt P41235); assay type: functional, cell-based;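 note: biochemical luminescence-based dose-response counterscreen measuring inhibition of HNF4 dimerization, run alongside a screen for blockers of ABHD5–perilipin-5 interaction; split luciferase complementation of HNF4 fusion proteins in cell lysate measuring dimerization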
T6 sequence (P41235 whole entry): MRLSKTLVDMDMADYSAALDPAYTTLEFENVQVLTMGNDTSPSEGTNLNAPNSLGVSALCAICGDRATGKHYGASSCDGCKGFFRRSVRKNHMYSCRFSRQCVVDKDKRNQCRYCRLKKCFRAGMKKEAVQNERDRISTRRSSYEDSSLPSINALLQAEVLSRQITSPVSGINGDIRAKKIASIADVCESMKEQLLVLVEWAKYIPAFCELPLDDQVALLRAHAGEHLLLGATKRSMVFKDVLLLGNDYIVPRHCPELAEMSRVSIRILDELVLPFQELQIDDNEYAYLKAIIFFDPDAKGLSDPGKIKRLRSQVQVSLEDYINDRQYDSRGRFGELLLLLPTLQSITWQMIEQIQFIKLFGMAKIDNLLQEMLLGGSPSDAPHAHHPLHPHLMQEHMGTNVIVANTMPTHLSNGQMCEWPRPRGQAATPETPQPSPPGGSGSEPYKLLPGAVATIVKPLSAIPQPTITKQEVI

[24] = reduced cellular PGC1a acetyl-lysine signal – cell-based, cherry-picked samples, dose response (AID 720514); assay type: functional;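 note: potency may reflect raised or lowered acetylation signal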

CCOC(=O)c1ccc2[nH]c(C)c(C)c2c1
active: IC50 [2] 5.45 µM
inactive: IC50 (CHO-K1) > 66.3 µM | IC50 [1] > 49.8 µM | IC50 [3] 20.2 µM | IC50 (Orexin receptor type 2 [4]) 18.8 µM | IC50 (Orexin receptor type 2 [5]) 13.5 µM

Cc1ccc(NC(=O)c2ccccc2NS(=O)(=O)c2ccc(Cl)s2)cc1S(=O)(=O)N1CCOCC1
active: IC50 [6] 9.12 µM | IC50 [7] 7.23 µM

CC(C)(O)CNc1cc(-c2c[nH]c3ncccc23)cc(Cl)n1
active: Ki [8] 1 µM | Ki [9] 0.002 µM | Ki [10] 0.126 µM | Ki [11] 2.51 µM | Ki [12] 0.316 µM | Ki [13] 0.316 µM | Ki [14] 0.00501 µM

O=C(Nc1nnc(-c2ccccc2)o1)c1cc(-c2cccs2)nc2ccccc12
active: EC50 [16] 1.15 µM | CC50 [17] 38.7 µM | IC50 [2] 6.15 µM | IC50 (Orexin receptor type 2 [4]) 8.5 µM | IC50 [18] 6.82 µM | IC50 [19] 19.5 µM
inconclusive: EC50 [15] > 150 µM
inactive: IC50 (CHO-K1) > 66.2 µM | IC50 [1] 43.7 µM | IC50 [3] 30.4 µM | IC50 (Orexin receptor type 2 [5]) > 50 µM

COCC(C)N1CCC(Oc2cccc(C(=O)NCCc3ccccc3)c2)CC1 (configuration not stated)
active: IC50 [6] 7.46 µM | IC50 [7] 4.22 µM

CCOC(=O)c1c(NC(=O)/C=C/C(=O)O)sc(C)c1-c1ccc(C(C)(C)C)cc1
> 60 µM (not active): EC50 [21]
inactive: IC50 [23] 17.4 µM
active: IC50 (Large T antigen) 20.8 µM | EC50 [20] 3.42 µM | EC50 [22] 5.31 µM | CC50 (Vero) 10.6 µM | AC50 (INS1) 4.33 µM | IC50 (Genome polyprotein) 25.6 µM | AC50 [24] 32.8 µM
